Results as given in ChEMBL document CHEMBL5385932, “Highly Concentrated Linear Guanidine Amides from the Marine Sipunculid Phascolosoma granulatum” (J Nat Prod, 2024).
Activity calls are given as the source filed them. The calls are words filed in the database; no cut-off is given here.

Columns and labels:
MCF7 = test: Cytotoxicity against human MCF7 cells assessed as effect on cell viability at 20 ug/ml by MTT assay; type: functional, cell-based; details: dose 20.0 µg/ml
Artemia salina = test: Toxicity in brine shrimp assessed as lethality at 500 uM measured after 24 to 48 hrs by microscopy; type: organism-based; details: in vivo, time 24-48 hrs
MIA PaCa-2 = test: Cytotoxicity against human MIA PaCa-2 cells assessed as effect on cell viability at 20 ug/ml by MTT assay; type: functional, cell-based; details: dose 20.0 µg/ml
HepG2 = test: Cytotoxicity against human HepG2 cells assessed as effect on cell viability at 20 ug/ml by MTT assay; type: functional, cell-based; details: dose 20.0 µg/ml
A549 = test: Cytotoxicity against human A549 cells assessed as effect on cell viability at 20 ug/ml by MTT assay; type: functional, cell-based; details: dose 20.0 µg/ml
A2058 = test: Cytotoxicity against human A2058 cells assessed as effect on cell viability at 20 ug/ml by MTT assay; type: functional, cell-based; details: dose 20.0 µg/ml
Escherichia coli = test: Antibacterial activity against Escherichia coli ATCC25922 assessed as effect on bacterial growth at 64 ug/ml; type: functional, organism-based; details: dose 64.0 µg/ml
Staphylococcus aureus = test: Antibacterial activity against methicillin-susceptible Staphylococcus aureus ATCC29213 assessed as effect on bacterial growth at 64 ug/ml; type: functional, organism-based; details: dose 64.0 µg/ml
Candida tropicalis = test: Antifungal activity against Candida tropicalis ATCC750 assessed as effect on fungal growth at 64 ug/ml; type: functional, organism-based; details: dose 64.0 µg/ml
Candida parapsilosis = test: Antifungal activity against Candida parapsilosis ATCC22019 assessed as effect on fungal growth at 64 ug/ml; type: functional, organism-based; details: dose 64.0 µg/ml
Pichia kudriavzevii = test: Antifungal activity against Candida krusei ATCC6258 assessed as effect on fungal growth at 64 ug/ml; type: functional, organism-based; details: dose 64.0 µg/ml
Candida albicans = test: Antifungal activity against Candida albicans ATCC64124 assessed as effect on fungal growth at 64 ug/ml; type: functional, organism-based; details: dose 64.0 µg/ml
Acinetobacter baumannii = test: Antibacterial activity against Acinetobacter baumannii ATCC19606 assessed as effect on bacterial growth at 64 ug/ml; type: functional, organism-based; details: dose 64.0 µg/ml
Nakaseomyces glabratus = test: Antifungal activity against Candida glabrata ATCC2001 assessed as effect on fungal growth at 64 ug/ml; type: functional, organism-based; details: dose 64.0 µg/ml
Aspergillus fumigatus = test: Antifungal activity against Aspergillus fumigatus ATCC46645 assessed as effect on fungal growth at 64 ug/ml; type: functional, organism-based; details: dose 64.0 µg/ml

Structure (SMILES) | Activity (MCF7) | Activity (Artemia salina) | Activity (MIA PaCa-2) | Activity (HepG2) | Activity (A549) | Activity (A2058) | Activity (Escherichia coli) | Activity (Staphylococcus aureus) | Activity (Candida tropicalis) | Activity (Candida parapsilosis) | Activity (Pichia kudriavzevii) | Activity (Candida albicans) | Activity (Acinetobacter baumannii) | Activity (Nakaseomyces glabratus) | Activity (Aspergillus fumigatus)
CC(C)CC(=O)N(C)CCCCNC(=N)N.O=C(O)C(F)(F)F | inactive | Non-Toxic | inactive | inactive | inactive | inactive | – | – | – | – | – | – | – | – | –
CC(C)C[C@H](O)CC/C=C\CNC(=O)CCNC(=N)N.O=C(O)C(F)(F)F | inactive | Non-Toxic | inactive | inactive | inactive | inactive | – | – | – | – | – | – | – | – | –
CC(C)CC[C@@H](C)C(=O)NCCCCNC(=N)N.O=C(O)C(F)(F)F | inactive | Non-Toxic | inactive | inactive | inactive | inactive | inactive | inactive | inactive | inactive | inactive | inactive | inactive | inactive | inactive
CC(C)CC[C@@H](C)C(=O)N(C)CCCCNC(=N)N.O=C(O)C(F)(F)F | inactive | Non-Toxic | inactive | inactive | inactive | inactive | inactive | inactive | inactive | inactive | inactive | inactive | inactive | inactive | inactive
CC(C)CC[C@@H](C)C(=O)NCCCNC(=N)N.O=C(O)C(F)(F)F | inactive | Non-Toxic | inactive | inactive | inactive | inactive | inactive | inactive | inactive | inactive | inactive | inactive | inactive | inactive | inactive
C/C(=C/CCC(C)C)C(=O)NCCCCNC(=N)N.O=C(O)C(F)(F)F | inactive | Non-Toxic | inactive | inactive | inactive | inactive | inactive | inactive | inactive | inactive | inactive | inactive | inactive | inactive | inactive
